Source: patent US20100278934A1, “METHODS AND COMPOSITIONS FOR CONSERVING AND/OR PREPARING AN ORGAN OR TISSUE FOR TRANSPLANT” (Regenerx Biopharmaceuticals Inc., priority 2006, published 2010)

Legend:
[1] = tested on: Human hepatic stellate cells HSC; assay: RT-PCR analysis of mRNA expression in human hepatic stellate cells cultured with Tβ4; format: cell-based
Protocol: Human hepatic stellate cells HSC were obtained from a liver cell mixture purchased from ADMET technologies after separation on an OptiPrep® Density Gradient Medium (Sigma). They were cultured until confluent and then plated at a density of 250,000 cells/60-mm dish and cultured in MEM supplemented with 10% bovine fetal serum, 1% non-essential amino acids and antibiotics. The cells were maintained in culture for approximately 48 hours and when semi-confluent they were serum-starved overnight using MEM supplemented with 1% albumin, antibiotics and 1% non-essential amino acids. RNA was extracted with Trizol (Invitrogen) and RT-PCR performed using primers. The expression of GAPDH was used as a control. All the experiments were performed in duplicate.
In many instances, the increase was dose dependent. […] The expression of another marker of HSC differentiation, namely PDGF-β receptor, was inhibited in a dose-dependent manner (75% with 1 μg/ml of Tβ4).

[2] = tested on: Co-cultures of rat HSC and Human hepatocytes; assay: Co-cultures of rat HSC and human hepatocytes with Tβ4, hepatocyte count after one week; format: cell-based; conditions: greater than 100 ng/ml of Tβ4; one week in culture
Protocol: Hepatocyte Growth Factor (HGF) is a trophic factor for hepatocytes. […] Co-cultures of rat HSC and Human hepatocytes are prepared. Controls are incubated with the regular hormonally-defined medium used for hepatocytes. Experimental cultures receive greater than 100 ng/ml of Tβ4 in the same culture medium. Cells are harvested after one week using collagenase and trypsin. The hepatocytes are separated from the HSC by low speed centrifugation and the cells counted and used for total RNA extraction. […] The purity of the cell fractions are determined after staining with anti-human albumin antibodies (rat HSC are negative). RNA is used for RT-PCR and the expression of liver specific genes analyzed using human primers. Rat primers are used to determine the degree of contamination of rat HSC.

[3] = HSC cultured for 24 hours with different concentrations of Tβ4, RT-PCR, GAPDH control
[4] = HSC cultured for 24 hours, RT-PCR

## thymosin beta 4 [Tβ4]
[1]; 1 μg/ml of Tβ4, HSC cultured for 24 hours, dose-dependent
  inhibition of expression of PDGF-β receptor: 75%
[1]; 1 mg/ml of Tβ4, HSC cultured for 24 hours
  increase in expression of HGF mRNA: 4 fold
[1]; [3]
  increase in expression of GSK 3β mRNA: 2.5 fold
  increase in expression of α-SMA mRNA: 4 fold
  increase in expression of β-catenin mRNA: 3 fold
[1]; [4]
  Tβ4 concentration giving maximal expression of α-SMA: 1 µg/mL
  Tβ4 concentration giving maximal increase in β-catenin mRNA: 1 ng/mL
[2]
  hepatocyte proliferation / number: proliferate and increase in number
